{"source": "ChEMBL document CHEMBL5465560", "about": "“Selectivity Literature for EUbOPEN Chemogenomic Library” (2024)", "key": {"[1]": {"biological_target": "T1, Serine/threonine-protein kinase MAK (Homo sapiens) (UniProt P20794)", "T1 sequence (whole entry)": "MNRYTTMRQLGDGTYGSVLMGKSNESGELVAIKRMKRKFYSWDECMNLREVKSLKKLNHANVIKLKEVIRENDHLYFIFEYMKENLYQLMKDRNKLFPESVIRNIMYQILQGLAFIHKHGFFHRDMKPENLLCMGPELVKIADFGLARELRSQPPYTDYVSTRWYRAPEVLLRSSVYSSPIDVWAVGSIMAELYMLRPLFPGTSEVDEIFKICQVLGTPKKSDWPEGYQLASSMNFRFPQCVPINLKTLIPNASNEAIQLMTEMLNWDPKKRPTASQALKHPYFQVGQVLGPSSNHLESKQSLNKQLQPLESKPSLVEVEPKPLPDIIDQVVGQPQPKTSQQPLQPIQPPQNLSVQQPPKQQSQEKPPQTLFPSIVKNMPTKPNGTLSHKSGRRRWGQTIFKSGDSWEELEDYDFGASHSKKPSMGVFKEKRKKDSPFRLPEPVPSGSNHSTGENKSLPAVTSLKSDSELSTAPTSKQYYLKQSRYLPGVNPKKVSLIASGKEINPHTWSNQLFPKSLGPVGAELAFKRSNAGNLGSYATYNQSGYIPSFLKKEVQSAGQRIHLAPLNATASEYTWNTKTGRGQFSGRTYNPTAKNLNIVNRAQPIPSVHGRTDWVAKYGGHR", "assay": "Selectivity interaction (KinomeScan (DiscoverX)) EUB0001619a MAK", "settings": "at 1 µM"}, "[2]": {"biological_target": "5'-AMP-activated protein kinase catalytic subunit alpha-2 (Homo sapiens) (UniProt P54646)", "sequence (P54646 whole entry, looked up)": "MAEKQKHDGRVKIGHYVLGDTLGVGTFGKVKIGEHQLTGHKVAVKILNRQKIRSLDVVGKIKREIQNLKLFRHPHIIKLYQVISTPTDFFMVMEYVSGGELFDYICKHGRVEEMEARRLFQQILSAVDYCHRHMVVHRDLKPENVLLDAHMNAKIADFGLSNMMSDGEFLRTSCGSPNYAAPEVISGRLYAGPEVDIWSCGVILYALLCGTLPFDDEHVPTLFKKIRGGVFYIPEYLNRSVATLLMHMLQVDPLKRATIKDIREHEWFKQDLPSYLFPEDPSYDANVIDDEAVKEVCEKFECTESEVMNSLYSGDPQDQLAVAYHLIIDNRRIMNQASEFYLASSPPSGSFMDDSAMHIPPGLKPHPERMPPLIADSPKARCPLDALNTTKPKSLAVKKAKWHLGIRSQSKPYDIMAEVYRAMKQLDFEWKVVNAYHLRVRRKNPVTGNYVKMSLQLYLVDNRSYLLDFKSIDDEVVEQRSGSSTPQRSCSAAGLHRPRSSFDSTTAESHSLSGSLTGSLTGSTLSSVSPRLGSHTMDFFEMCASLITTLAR", "assay": "Selectivity interaction (ActivX KiNativ screen (ex vivo kinase selectivity in human PBMCs)) EUB0001619a PRKAA2", "type": "cell-based", "settings": "PBMC, at 1 µM"}, "[3]": {"biological_target": "Ribosomal protein S6 kinase alpha-5 (Homo sapiens) (UniProt O75582)", "sequence (O75582 whole entry, looked up)": "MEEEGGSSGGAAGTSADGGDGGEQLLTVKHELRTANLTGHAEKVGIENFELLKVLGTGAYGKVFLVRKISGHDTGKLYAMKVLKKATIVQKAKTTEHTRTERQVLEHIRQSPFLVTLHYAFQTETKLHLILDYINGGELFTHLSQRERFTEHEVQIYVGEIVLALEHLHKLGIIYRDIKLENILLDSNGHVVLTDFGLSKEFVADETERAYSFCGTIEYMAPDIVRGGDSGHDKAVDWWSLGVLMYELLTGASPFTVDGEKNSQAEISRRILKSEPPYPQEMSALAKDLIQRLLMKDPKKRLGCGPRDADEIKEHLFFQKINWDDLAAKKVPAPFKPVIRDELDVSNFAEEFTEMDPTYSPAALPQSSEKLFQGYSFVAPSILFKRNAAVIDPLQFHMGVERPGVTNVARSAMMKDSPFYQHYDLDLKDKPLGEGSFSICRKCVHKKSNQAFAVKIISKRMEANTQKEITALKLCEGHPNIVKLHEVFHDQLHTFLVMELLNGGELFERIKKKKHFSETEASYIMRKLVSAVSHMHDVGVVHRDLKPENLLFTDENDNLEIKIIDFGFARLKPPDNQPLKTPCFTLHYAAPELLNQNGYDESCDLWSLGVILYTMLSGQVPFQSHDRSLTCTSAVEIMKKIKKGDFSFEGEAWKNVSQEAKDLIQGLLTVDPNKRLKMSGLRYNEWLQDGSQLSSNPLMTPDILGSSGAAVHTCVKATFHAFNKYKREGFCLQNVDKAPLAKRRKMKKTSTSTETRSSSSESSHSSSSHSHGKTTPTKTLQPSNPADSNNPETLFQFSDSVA", "assay": "Selectivity interaction (KinomeScan (DiscoverX)) EUB0001619a RPS6KA5", "settings": "at 1 µM"}, "[4]": {"biological_target": "Serine/threonine-protein kinase mTOR (Homo sapiens, UniProt P42345)", "assay": "Selectivity interaction (KinomeScan (DiscoverX)) EUB0000045b MTOR"}, "[5]": {"biological_target": "T2, Serine/threonine-protein kinase TBK1 (Homo sapiens) (UniProt Q9UHD2)", "T2 sequence (whole entry)": "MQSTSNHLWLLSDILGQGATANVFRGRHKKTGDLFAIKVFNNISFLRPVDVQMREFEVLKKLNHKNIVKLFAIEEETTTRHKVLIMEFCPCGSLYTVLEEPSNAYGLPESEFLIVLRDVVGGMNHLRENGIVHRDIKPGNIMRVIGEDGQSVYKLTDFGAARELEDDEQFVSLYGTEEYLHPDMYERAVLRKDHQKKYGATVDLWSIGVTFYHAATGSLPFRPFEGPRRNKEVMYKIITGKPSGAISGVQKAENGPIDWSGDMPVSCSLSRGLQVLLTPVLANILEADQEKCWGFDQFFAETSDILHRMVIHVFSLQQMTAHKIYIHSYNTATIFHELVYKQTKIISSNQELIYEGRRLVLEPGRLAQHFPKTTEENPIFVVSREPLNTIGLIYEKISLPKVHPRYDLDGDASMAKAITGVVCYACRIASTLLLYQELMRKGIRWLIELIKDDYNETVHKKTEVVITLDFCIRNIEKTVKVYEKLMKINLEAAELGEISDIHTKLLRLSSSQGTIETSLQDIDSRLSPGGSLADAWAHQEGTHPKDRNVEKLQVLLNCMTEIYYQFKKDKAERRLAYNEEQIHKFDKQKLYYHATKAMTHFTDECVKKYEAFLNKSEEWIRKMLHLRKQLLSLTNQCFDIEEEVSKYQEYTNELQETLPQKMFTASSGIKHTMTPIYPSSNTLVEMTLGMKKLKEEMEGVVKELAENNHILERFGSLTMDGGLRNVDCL", "assay": "Selectivity interaction (Kinase panel (KiNativ target engagement assay in Jurkat cells)) EUB0001635a TBK1", "type": "cell-based", "settings": "Selectivity number of off-targets 0.0, Selectivity number of targets 233.0, Source Knowledge https://www.sciencedirect.com/science/article/pii/S2451945619300674?via%3Dihub, at 1 µM"}, "[6]": {"biological_target": "T3, Cyclin-G-associated kinase (Homo sapiens) (UniProt O14976)", "T3 sequence (whole entry)": "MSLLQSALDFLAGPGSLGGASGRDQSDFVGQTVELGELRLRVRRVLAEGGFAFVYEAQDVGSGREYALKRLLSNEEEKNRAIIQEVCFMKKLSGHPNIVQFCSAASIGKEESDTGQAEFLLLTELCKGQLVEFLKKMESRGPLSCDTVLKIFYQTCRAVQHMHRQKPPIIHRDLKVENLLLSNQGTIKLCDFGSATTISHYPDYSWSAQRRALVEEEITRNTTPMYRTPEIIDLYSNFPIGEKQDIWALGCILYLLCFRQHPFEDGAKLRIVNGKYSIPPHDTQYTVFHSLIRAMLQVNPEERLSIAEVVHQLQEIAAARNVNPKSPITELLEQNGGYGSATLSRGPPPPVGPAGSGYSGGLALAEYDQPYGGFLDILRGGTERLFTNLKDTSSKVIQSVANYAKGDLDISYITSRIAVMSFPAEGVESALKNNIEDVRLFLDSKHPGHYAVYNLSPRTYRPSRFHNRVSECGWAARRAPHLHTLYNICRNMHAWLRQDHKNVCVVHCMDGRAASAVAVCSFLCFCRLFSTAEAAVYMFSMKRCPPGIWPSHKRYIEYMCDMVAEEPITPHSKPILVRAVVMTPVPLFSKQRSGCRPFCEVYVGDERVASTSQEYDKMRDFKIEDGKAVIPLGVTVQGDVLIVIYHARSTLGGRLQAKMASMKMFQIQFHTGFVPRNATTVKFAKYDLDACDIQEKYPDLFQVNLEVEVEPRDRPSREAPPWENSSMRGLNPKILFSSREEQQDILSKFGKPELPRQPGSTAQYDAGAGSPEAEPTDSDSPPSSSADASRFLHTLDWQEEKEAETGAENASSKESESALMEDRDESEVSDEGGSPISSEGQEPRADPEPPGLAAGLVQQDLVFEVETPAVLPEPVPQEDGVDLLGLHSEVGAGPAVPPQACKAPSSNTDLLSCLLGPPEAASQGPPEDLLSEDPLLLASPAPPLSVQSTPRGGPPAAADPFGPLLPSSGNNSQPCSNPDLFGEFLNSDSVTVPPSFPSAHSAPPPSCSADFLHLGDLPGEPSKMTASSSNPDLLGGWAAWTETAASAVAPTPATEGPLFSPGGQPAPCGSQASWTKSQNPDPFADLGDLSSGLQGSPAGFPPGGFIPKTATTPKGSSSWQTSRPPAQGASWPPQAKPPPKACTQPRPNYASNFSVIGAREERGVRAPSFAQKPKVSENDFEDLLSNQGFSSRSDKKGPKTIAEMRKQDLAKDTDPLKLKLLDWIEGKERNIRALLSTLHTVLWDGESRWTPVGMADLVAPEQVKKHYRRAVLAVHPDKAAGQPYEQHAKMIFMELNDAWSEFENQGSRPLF", "assay": "Selectivity interaction (DSF assay) EUB0000229b GAK"}}}
{"molecule": "N#Cc1cccc(-c2c[nH]c3ncnc(N4CCOCC4)c23)c1", "values": [{"measurement": "% of control", "setting": "[1]", "value": 94, "unit": "%"}, {"measurement": "% of inhibition", "setting": "[2]", "value": 27, "unit": "%"}, {"measurement": "% of control", "setting": "[3]", "value": 100, "unit": "%"}]}
{"molecule": "C=CC(=O)Nc1cc(-n2c(=O)ccc3cnc4ccc(-c5ccc(NS(C)(=O)=O)cc5)cc4c32)ccc1C", "values": [{"measurement": "% of control", "setting": "[4]; at 1 µM", "value": 45, "unit": "%"}, {"measurement": "% of control", "setting": "[4]; at 10 µM", "value": 0, "unit": "%"}]}
{"molecule": "C=CC(=O)Nc1ccc(C(=O)Nc2[nH]nc3c2CN(C(=O)N[C@H](CN(C)C)c2ccccc2)C3(C)C)cc1", "values": [{"measurement": "% of engagement", "setting": "[5]", "value": 32.4, "unit": "%"}]}
{"molecule": "COc1cc(N(C)c2ccnc3ccc(C(F)(F)F)cc23)cc(OC)c1OC", "values": [{"measurement": "dTm", "setting": "[6]", "value": -0.3, "unit": "K"}]}
